Test results reported in patent US6784314B2, “Process for producing amine derivatives” (Takeda Chemical Industries, Ltd., priority 2000, dated 2004).
Structures can show the parent of a compound that is named as a salt.

Experiments:
[1] = stability on storage for a long time under usual conditions; format: physicochemical
β-amyloid protein = assay: action of inhibiting the production and secretion of β-amyloid protein

- stability (denaturation after storage) [1]: very excellent in stability
- transfer to the brain (transfer to the brain): excellent in transfer to the brain
SMILES: CN(C)CC[C@@H]1CCc2cc(OCc3ccc(-c4ccccc4)cc3)ccc2C1 [Compound (V′), (R)-(+)-6-(4-biphenylyl)methoxy-2-[2-(N,N-dimethylamino)ethyl]tetralin hydrochloride monohydrate]
- toxicity (toxicity): low toxic
- action of inhibiting the production and secretion of β-amyloid protein (β-amyloid protein): excellent
